From US6903113B2, “Urea substituted imidazopyridines” (3M Innovative Properties Company, priority 2000, dated 2005)

Columns and labels:
[1] = system: tumor necrosis factor (α); assay: Cytokine Induction in Human Cells: tumor necrosis factor (α) by ELISA or IGEN Assay; assay type: cell-based; design: key to Lowest Effective Concentration Tumor Necrosis Factor: A “*” indicates that no induction was seen at any of the tested concentrations; conditions: human PBMC, 18 to 24 hours incubation, compounds generally tested at 30-0.014 μM; for minimal effective concentration: read-out: Lowest Effective Concentration Tumor Necrosis Factor
From the text: (§1) An in vitro human blood cell system is used to assess cytokine induction. Activity is based on the measurement of interferon and tumor necrosis factor (α) (IFN and TNF, respectively) secreted into culture media as described by Testerman et. al. In “Cytokine Induction by the Immunomodulators Imiquimod and S-27609”, Journal of Leukocyte Biology, 58, 365-372 (September, 1995).
(§2) Whole blood from healthy human donors is collected by venipuncture into EDTA vacutainer tubes. Peripheral blood mononuclear cells (PBMC) are separated from whole blood by density gradient centrifugation using Histopaque®-1077. Blood is diluted 1:1 with Dulbecco's Phosphate Buffered Saline (DPBS) or Hank's Balanced Salts Solution (HBSS). The PBMC layer is collected and washed twice with DPBS or HBSS and resuspended at 4×10^6 cells/mL in RPMI complete. The PBMC suspension is added to 48 well flat bottom sterile tissue culture plates (Costar, Cambridge, Mass. or Becton Dickinson Labware, Lincoln Park, N.J.) containing an equal volume of RPMI complete media containing test compound.
(§3) The compounds are solubilized in dimethyl sulfoxide (DMSO). The DMSO concentration should not exceed a final concentration of 1% for addition to the culture wells. The compounds are generally tested at concentrations ranging from 30-0.014 μM.
(§4) The solution of test compound is added at 60 μM to the first well containing RPMI complete and serial 3 fold dilutions are made in the wells. The PBMC suspension is then added to the wells in an equal volume, bringing the test compound concentrations to the desired range (30-0.014 μM). The final concentration of PBMC suspension is 2×10^6 cells/mL. The plates are covered with sterile plastic lids, mixed gently and then incubated for 18 to 24 hours at 37° C. in a 5% carbon dioxide atmosphere.
(§5) Following incubation the plates are centrifuged for 10 minutes at 1000 rpm (˜200×g) at 4° C. The cell-free culture supernatant is removed with a sterile polypropylene pipet and transferred to sterile polypropylene tubes. Samples are maintained at −30 to −70° C. until analysis. The samples are analyzed for interferon (α) by ELISA and for tumor necrosis factor (α) by ELISA or IGEN Assay
Tumor necrosis factor (α) (TNF) concentration is determined using ELISA kits available from Biosource International, Camarillo, Calif. Alternately, the TNF concentration can be determined by Origen® M-Series Immunoassay and read on an IGEN M-8 analyzer from IGEN International, Gaithersburg, Md. The immunoassay uses a human TNF capture and detection antibody pair from Biosource International, Camarillo, Calif. Results are expressed in pg/mL.
(§6) The table below lists the lowest concentration found to induce interferon and the lowest concentration found to induce tumor necrosis factor for each compound.

interferon (α) = assay: Cytokine Induction in Human Cells: interferon (α) by ELISA; assay type: cell-based; conditions: human PBMC, 18 to 24 hours incubation, compounds generally tested at 30-0.014 μM; read-out: Lowest Effective Concentration Interferon
From the text: as §1, §2, §3, §4, §5
Interferon (α) concentration is determined by ELISA using a Human Multi-Species kit from PBL Biomedical Laboratories, New Brunswick, N.J. Results are expressed in pg/mL.
as §6

melting point [°C] | Compound | minimal effective concentration [1] [µM] | minimal effective concentration (interferon (α)) [µM] | Lowest Effective Concentration Tumor Necrosis Factor [1]
129.5 to 131 | CCCCc1nc2c(N)nc(C)c(C)c2n1CCCCNS(=O)(=O)N(C)C [Example 6, N′-[4-(4-Amino-2-butyl-6,7-dimethyl-1H-imidazo[4,5-c]pyridin-1-yl)butyl]-N,N-dimethylsulfamide] | 0.01 | 0.01 | –
130 to 130.5 | CCCCc1nc2c(N)nc(C)c(C)c2n1CCCCNS(C)(=O)=O [Example 2, N-[4-(4-Amino-2-butyl-6,7-dimethyl-1H-imidazo[4,5-c]pyridin-1-yl)butyl]methanesulfonamide] | 0.01 | 0.0046 | –
228 to 230 | Cc1nc(N)c2nc(C)n(CCCCNS(C)(=O)=O)c2c1C [Example 7, N-[4-(4-amino-2,6,7-trimethyl-1H-imidazo[4,5-c]pyridin-1-yl)butyl]methanesulfonamide] | – | 0.37 | *
